Data as given in ChEMBL document CHEMBL3886996, “6-alkynyl-pyridine derivatives” (2016).

Molecular target: Baculoviral IAP repeat-containing protein 2 (Homo sapiens, UniProt Q13490)
Test: Binding Assays (DELFIA): BIR3 domains (10 nM) were incubated with SMAC peptide (10 nM) in assay buffer (50 mM Tris, 120 mM NaCl, 0.1% BSA, 1 mM DTT, 0.05% Triton X100) for one hour at room temperature in the presence of inhibitory compounds. The assay mixture was transferred to a streptavidin coated plate and incubated for one hour at room temperature to allow binding of the biotinylated peptide and associated BIR3 domains to the plate. After several washing steps Eu labeled anti-GST antibody (e.g. Perkin Elmer DELFIA Eu-N1-antiGST AD0250) was added to detect BIR3 domain-SMAC peptide interactions according to Perkin Elmer's instructions. Briefly, the antibody was added (dilution 1:5000 in Perkin Elmer DELFIA Assay Buffer 2013-01) and incubated for one hour. After 3 washing steps using Delfia Washing Buffer (Perkin Elmer DELFIA Wash 2013-05), Enhancement Solution (Perkin Elmer Enhancement Asolution 2013-02) was added and incubation continued for 10 minutes.

IC50: in the range around 2 nM
Structure (SMILES): CN[C@@H](C)C(=O)Nc1ccc(-c2c(-c3cccnc3OC)nc3ccccn23)c(C#Cc2ccc3c(C)nccc3c2)n1
